According to US8877748B2, “Heterocyclic fused anthraquinone derivatives, manufacturing method and pharmaceutical composition using thereof” (National Defense Medical Center, priority 2012, dated 2014):
Read-outs that look alike come from different tables or passages of the source.

Tested on: PC-3 prostate cancer cell line
Experiment: SRB assay cell viability, PC-3 prostate cancer cell line
Format: cell-based, human
[1] = Homo sapiens, PC-3 prostate cancer cell line, Table II prints no unit, μM printed, read-out: SRB assay: 50% inhibition of cancer cell proliferation of sample concentration (IC50) of PC-3 prostate cancer cell line
[2] = PC-3 prostate cancer cell line, Table II prints no unit, μM printed, read-out: SRB assay: 50% inhibition of cancer cell proliferation of sample concentration (IC50) of PC-3 prostate cancer cell line
[3] = PC-3 prostate cancer cells, read-out: IC50 in PC-3 prostate cancer cells (cell viability analysis)

IC50 [1] [µM] | Molecule | further results
0.29 | Cc1cccc(Nc2cc3c(c4nsnc24)C(=O)c2ccccc2C3=O)c1 [C62, 4-(m-tolylamino)anthra[2,1-c][1,2,5] thiadiazol-6,11-dione] | –
> 15 | Cc1cc(C)cc(Sc2cc3c(c4nsnc24)C(=O)c2ccccc2C3=O)c1 [C49, 4-(3,5-dimethyl-phenyl-thio)anthra[2,1-c] [1,2,5]thiadiazol-6,11-dione] | –
> 15 | O=C1c2ccccc2C(=O)c2c1cc(Sc1cc(Cl)c(Cl)cc1Cl)c1nsnc21 [C34, 4-(2,4,5-trichloro-phenylthio)anthra[2,1-C] [1,2,5]thiadiazol-6,11-dione] | –
> 15 | O=C1c2ccccc2C(=O)c2c1cc(Sc1ccccc1Cl)c1nsnc21 [C32, 4-(2-chloro-phenylthio)anthra[2,1-c] [1,2,5]thiadiazol-6,11-dione] | IC50 (Homo sapiens, PC-3 prostate cancer cells, read-out: IC50 in PC-3 prostate cancer cells (cell viability analysis)): > 15 µM
8.82 | O=C1c2ccccc2C(=O)c2c1cc(Sc1cccc(F)c1)c1nsnc21 [C38, 4-(3-fluorophenylthio)anthra[2,1-c][1,2,5] thiadiazol-6,11-dione] | –
12.4 | O=C1c2ccccc2C(=O)c2c1cc(Sc1cccc(Br)c1)c1nsnc21 [C40, 4-(3-bromophenylthio)anthra[2,1-c][1,2,5] thiadiazol-6,11-dione] | –
> 15 | CC(C)c1ccccc1Sc1cc2c(c3nsnc13)C(=O)c1ccccc1C2=O [C52, 4-(2-isopropyl-phenyl-thio)anthra[2,1-c] [1,2,5]thiadiazol-6,11-dione] | –
> 15 | Cc1ccc(Sc2cc3c(c4nsnc24)C(=O)c2ccccc2C3=O)cc1 [C44, 4-(4-methyl-phenyl-thio)anthra[2,1-c] [1,2,5]thiadiazol-6,11-dione] | –
2.28 | O=C1c2ccccc2C(=O)c2c1cc(Nc1cccc(Cl)c1)c1nsnc21 [C63, 4-(3-chloro-phenylamino)anthra[2,1-c] [1,2,5]thiadiazol-6,11-dione] | –
> 15 | CCc1ccccc1Sc1cc2c(c3nsnc13)C(=O)c1ccccc1C2=O [C51, 4-(2-ethyl-phenylthio)anthra[2,1-c][1,2,5] thiadiazol-6,11-dione] | –
5.84 | O=C1c2ccccc2C(=O)c2c1cc(SCc1ccccc1Cl)c1nsnc21 [C53, 4-(2-chloro-benzylthio)anthra[2,1-C] [1,2,5]thiadiazol-6,11-dione] | –

The next lines start with the molecule.

Molecule | IC50 [1] [µM] | further results
COc1ccccc1Sc1cc2c(c3nsnc13)C(=O)c1ccccc1C2=O [C23, 4-(2-methoxy-phenyl-thio)anthra[2,1-c] [1,2,5]thiadiazol-6,11-dione] | > 15 | –
CCCNc1cc2c(c3nsnc13)C(=O)c1ccccc1C2=O [C6, 4-(propylamino)anthra-[2,1-c][1,2,5] thiadiazol-6,11-dione] | 3.25 | –
4-(2-fluoro-phenyl thio)anthra[2,1-c] [1,2,5]thiadiazol oxazole-6,11-dione [C33] | – | IC50 [2]: > 15 µM; IC50 [3]: 5.48 µM
O=C1c2ccccc2C(=O)c2c1cc(Sc1cccc(Cl)c1Cl)c1nsnc21 [C30, 4-(2,3-dichloro-phenylthio)anthra[2,1-c] [1,2,5]thiadiazol oxazole-6,11-dione] | – | IC50 [2]: 11 µM
4-(4-ethyl-phenyl-thio)anthra[2,1-c][1,2,5] thiadiazol oxazole-6,11-dione [C54] | – | IC50 [2]: 7.5 µM
CCN1CCN(c2cc3c(c4nsnc24)C(=O)c2ccccc2C3=O)CC1 [C9, 4-(4-ethyl-piperazin-1-yl)anthra[2,1-c] [1,2,5]thiadiazol-6,11-dione] | 9.43 | –
4-(2-mercapto-phenyl-thio)anthra[2,1-c] [1,2,5]thiadiazol oxazole-6,11-dione [C36] | – | IC50 [2]: > 15 µM
O=C1c2ccccc2C(=O)c2c1cc(O)c1nsnc21 [C4, Potassium 6,11-dioxo-6,11-dihydroanthra[2,1-c][1,2,5]thiadiazol-4-olate] | 18.5 | –
4-(phenethylthiol)anthra[2,1-c][1,2,5] thiadiazol-6,11-dione [C29] | – | IC50 [3]: 19 µM
CCCCNc1cc2c(c3nsnc13)C(=O)c1ccccc1C2=O [C12, 4-butylamino-anthra[2,1-c][1,2,5] thiadiazol-6,11-dione] | 1.76 | –
O=C1c2ccccc2C(=O)c2c1cc(Sc1ccc(Br)cc1)c1nsnc21 [C24, 4-(4-bromo-phenyl-thio)anthra[2,1-c] [1,2,5]thiadiazol-6,11-dione] | > 15 | –
Cc1cccc(Sc2cc3c(c4nsnc24)C(=O)c2ccccc2C3=O)c1 [C47, 4-(m-phenylmethylthio)anthra[2,1-c] [1,2,5]thiadiazol-6,11-dione] | – | IC50 [2]: > 15 µM
CCCSc1cc2c(c3nsnc13)C(=O)c1ccccc1C2=O [C17, 4-(n-propylthio)-anthra[2,1-c][1,2,5] thiadiazol-6,11-dione] | 3.69 | –
CCNc1cc2c(c3nsnc13)C(=O)c1ccccc1C2=O [C13, 4-ethylamino anthra[2,1-c][1,2,5] thiadiazol-6,11-dione] | 2.97 | –
CC(C)(C)c1ccc(Sc2cc3c(c4nsnc24)C(=O)c2ccccc2C3=O)cc1 [C31, 4-(4-tert-butyl-alkylphenyl-thio)anthra [2,1-c][1,2,5]thiadiazol-6,11-dione] | – | IC50 [2]: > 15 µM
4-(4-nitrophenyl thio)anthra[2,1-c][1,2,5] thiadiazol oxazole-6,11-dione [C45] | – | IC50 [2]: 8.38 µM
O=C1c2ccccc2C(=O)c2c1cc(N1CCCCC1)c1nsnc21 [C11, 4-(piperidine-1-yl)anthra[2,1-c][1,2,5] thiadiazol-6,11-dione] | 1.38 | –
CC(C)c1ccc(Sc2cc3c(c4nsnc24)C(=O)c2ccccc2C3=O)cc1 [C26, 4-(4-isopropyl-phenyl-thio)anthra[2,1-c] [1,2,5]thiadiazol-6,11-dione] | > 15 | –
O=C1c2ccccc2C(=O)c2c1cc(Sc1ccc(F)cc1)c1nsnc21 [C28, 4-(4-fluoro-phenyl-thio)anthra[2,1-c] [1,2,5]thiadiazol-6,11-dione] | 6.7 | –
